Columns and labels:
[1] = molecular target: mTOR (human recombinant aa mTOR 1360-2549) (Homo sapiens (Human), UniProt P42345); experiment: mTOR enzymatic test by TR-FRET (phosphorylation of GFP-4EBP1); type: biochemical
Summary of the method: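 After a 30 min room-temperature kinase reaction, EDTA (10 mM final) and Tb-labelled phospho-Thr46 antibody (2 nM final) were added and incubated 60 min. Energy transfer from Tb to phosphorylated GFP-4EBP1 was read at 340 nm excitation, emissions 490/520 nm. Values derive from the 520/490 fluorescence ratio.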

PI3Kα (p110α/p85α) = PI3Kα (p110α/p85α) (Homo sapiens (Human), UniProt P42336); experiment: PI3Kα enzymatic test by measuring the consumption of ATP; type: biochemical
Sequence of PI3Kα (p110α/p85α) (P42336 whole entry): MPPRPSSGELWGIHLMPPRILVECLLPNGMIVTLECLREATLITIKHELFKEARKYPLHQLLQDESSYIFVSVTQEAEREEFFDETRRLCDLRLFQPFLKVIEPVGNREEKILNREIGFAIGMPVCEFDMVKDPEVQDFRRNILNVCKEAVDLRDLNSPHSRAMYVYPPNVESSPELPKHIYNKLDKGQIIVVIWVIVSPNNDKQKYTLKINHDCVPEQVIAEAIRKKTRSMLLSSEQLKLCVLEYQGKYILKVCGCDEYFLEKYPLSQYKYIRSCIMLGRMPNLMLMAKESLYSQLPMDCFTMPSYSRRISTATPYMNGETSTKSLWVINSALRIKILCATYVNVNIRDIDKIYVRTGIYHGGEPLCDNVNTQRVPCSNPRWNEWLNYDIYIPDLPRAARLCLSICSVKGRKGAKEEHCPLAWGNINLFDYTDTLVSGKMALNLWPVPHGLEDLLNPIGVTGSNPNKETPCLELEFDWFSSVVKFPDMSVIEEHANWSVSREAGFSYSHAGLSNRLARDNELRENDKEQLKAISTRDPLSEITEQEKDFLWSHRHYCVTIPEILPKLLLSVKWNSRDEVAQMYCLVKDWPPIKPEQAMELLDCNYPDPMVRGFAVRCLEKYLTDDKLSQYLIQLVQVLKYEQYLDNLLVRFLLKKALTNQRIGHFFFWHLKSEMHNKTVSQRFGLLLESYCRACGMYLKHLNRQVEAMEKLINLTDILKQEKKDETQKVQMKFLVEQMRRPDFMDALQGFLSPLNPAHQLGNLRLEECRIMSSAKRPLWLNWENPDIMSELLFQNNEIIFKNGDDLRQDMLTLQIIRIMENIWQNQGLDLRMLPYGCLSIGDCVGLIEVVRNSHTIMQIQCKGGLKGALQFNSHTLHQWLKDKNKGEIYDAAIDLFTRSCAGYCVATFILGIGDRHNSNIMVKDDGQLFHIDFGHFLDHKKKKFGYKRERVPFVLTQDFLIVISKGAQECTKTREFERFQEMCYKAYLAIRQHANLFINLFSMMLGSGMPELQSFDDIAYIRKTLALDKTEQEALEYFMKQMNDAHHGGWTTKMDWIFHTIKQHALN
Sequence of PI3Kα (p110α/p85α) (P27986 whole entry partner): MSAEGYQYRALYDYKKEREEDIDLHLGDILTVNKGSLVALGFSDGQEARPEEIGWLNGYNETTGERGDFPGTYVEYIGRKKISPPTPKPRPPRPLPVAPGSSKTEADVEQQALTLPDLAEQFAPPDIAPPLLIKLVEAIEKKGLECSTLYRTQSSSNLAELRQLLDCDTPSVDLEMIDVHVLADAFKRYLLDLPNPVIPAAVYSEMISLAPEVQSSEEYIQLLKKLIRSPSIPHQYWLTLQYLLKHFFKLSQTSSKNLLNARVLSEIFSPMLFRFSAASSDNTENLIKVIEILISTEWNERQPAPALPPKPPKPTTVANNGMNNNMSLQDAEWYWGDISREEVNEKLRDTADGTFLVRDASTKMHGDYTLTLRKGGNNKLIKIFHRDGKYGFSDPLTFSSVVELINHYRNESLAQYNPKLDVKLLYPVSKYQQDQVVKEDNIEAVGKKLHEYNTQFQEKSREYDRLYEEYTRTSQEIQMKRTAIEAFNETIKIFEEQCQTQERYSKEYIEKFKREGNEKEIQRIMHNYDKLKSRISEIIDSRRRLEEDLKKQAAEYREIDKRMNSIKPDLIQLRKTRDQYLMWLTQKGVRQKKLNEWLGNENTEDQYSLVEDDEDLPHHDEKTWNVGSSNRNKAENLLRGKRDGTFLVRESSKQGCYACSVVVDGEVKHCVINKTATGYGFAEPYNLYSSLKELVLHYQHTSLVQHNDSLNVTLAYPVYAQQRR
Summary of the method: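 ATP consumption read out by KinaseGlo luminescence after a 90 min reaction of 1.7 μg/ml PI3Kα (p110α/p85α) with 2 μM ATP and 50 μM PIP2, buffered at pH 7.5 (Tris, 10 mM MgCl2, 1 mM EGTA, 0.03% Chaps, 1 mM DTT). Threefold dilution series over ≥10 000-fold range yield IC50.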

U87MG tumour cells = experiment: Test of in vitro proliferation of U87MG tumour cells; type: cell-based; details: Homo sapiens, U-87 MG, 72 h, U87MG cells, 72 hours; read-out: U87 Cell Proliferation IC50
Description: Model 4: Test of in vitro Proliferation of U87MG Tumour Cells.
The cell growth is determined with the reagent CellTiter 96 AQueous One Solution Cell Proliferation Assay from Promega (Cat. No. G3581).

Akt-pS473 in U87MG cells = details: Homo sapiens, U-87 MG, read-out: U87 Akt-pS473 % Inhibition or IC50, nM (IC50), U87MG cells

Sequence of mTOR (human recombinant aa mTOR 1360-2549) (P42345 1360-2549): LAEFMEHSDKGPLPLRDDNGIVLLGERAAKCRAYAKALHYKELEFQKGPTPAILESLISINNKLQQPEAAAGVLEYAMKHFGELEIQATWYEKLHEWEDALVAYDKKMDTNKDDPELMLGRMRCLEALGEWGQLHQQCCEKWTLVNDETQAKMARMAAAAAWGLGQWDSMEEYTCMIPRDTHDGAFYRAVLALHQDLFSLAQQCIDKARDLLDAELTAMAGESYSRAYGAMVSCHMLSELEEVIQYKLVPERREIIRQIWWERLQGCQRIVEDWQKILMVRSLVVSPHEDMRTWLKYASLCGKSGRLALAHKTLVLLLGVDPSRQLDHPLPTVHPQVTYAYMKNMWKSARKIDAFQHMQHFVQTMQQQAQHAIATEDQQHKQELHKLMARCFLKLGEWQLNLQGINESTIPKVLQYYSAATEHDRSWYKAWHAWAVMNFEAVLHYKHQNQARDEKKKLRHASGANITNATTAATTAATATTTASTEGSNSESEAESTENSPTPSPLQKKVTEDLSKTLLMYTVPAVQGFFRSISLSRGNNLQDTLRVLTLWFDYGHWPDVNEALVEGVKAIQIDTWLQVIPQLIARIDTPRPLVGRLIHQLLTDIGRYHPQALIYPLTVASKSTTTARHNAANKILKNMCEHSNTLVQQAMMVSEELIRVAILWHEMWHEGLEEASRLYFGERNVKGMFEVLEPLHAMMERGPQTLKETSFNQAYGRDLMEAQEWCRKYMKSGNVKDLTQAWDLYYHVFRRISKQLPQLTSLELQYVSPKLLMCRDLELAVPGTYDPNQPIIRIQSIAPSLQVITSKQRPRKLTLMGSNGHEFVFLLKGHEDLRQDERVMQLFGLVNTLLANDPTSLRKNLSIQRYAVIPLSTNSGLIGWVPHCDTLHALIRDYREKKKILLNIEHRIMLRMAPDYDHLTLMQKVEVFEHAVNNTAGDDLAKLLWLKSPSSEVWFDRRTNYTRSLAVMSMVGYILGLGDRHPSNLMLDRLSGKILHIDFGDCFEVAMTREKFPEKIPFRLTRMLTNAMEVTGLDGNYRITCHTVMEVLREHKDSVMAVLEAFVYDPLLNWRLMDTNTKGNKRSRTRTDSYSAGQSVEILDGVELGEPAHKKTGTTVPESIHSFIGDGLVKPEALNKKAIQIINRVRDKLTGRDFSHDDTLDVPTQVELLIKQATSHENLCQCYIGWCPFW

Compound | IC50 [1] | PI3Ka IC50 (PI3Kα (p110α/p85α)) | IC50 (U87MG tumour cells) | IC50 (Akt-pS473 in U87MG cells)
CCN1CC(C)(C)Oc2nc(N3CC4CCC(C3)O4)nc(-c3ccc(NC(=O)Nc4ccc(OCCOC)cn4)cc3)c2C1=O [Example 40, 1-{4-[6-Ethyl-8,8-dimethyl-2-(8-oxa-3-azabicyclo[3.2.1]oct-3-yl)-5-oxo-5,6,7,8-tetrahydro-9-oxa-1,3,6-triazabenzocyclohepten-4-yl]phenyl}-3-[5-(2-methoxyethoxy)pyridin-2-yl]urea] | 56 nM | >10000 nM | 274 nM | 59 nM
CN1CC(C)(C)Oc2nc(N3C4CCC3COC4)nc(-c3ccc(NC(=O)Nc4ccccn4)cc3)c2C1=O [Example 41, 1-Pyridin-2-yl-3-{4-[6,8,8-trimethyl-2-(3-oxa-8-azabicyclo[3.2.1]oct-8-yl)-5-oxo-5,6,7,8-tetrahydro-9-oxa-1,3,6-triazabenzocyclohepten-4-yl]phenyl}urea] | 35 nM | >10000 nM | 122 nM | 31 nM
Cc1ccc(NC(=O)Nc2ccc(-c3nc(N4CC5CCC(C4)O5)nc4c3C(=O)N(C)CC(C)(C)O4)cc2)nc1 [Example 42, 1-(5-Methylpyridin-2-yl)-3-{4-[6,8,8-trimethyl-2-(8-oxa-3-azabicyclo[3.2.1]oct-3-yl)-5-oxo-5,6,7,8-tetrahydro-9-oxa-1,3,6-triazabenzocyclohepten-4-yl]phenyl}urea] | 43 nM | >10000 nM | 350 nM | 52 nM
CNC(=O)Nc1ccc(-c2nc(N3C4CCC3COC4)nc3c2C(=O)N(C)CC(C)(C)O3)cc1 [Example 43, 1-Methyl-3-{4-[6,8,8-trimethyl-2-(3-oxa-8-azabicyclo[3.2.1]oct-8-yl)-5-oxo-5,6,7,8-tetrahydro-9-oxa-1,3,6-triazabenzocyclohepten-4-yl]phenyl}urea] | 27 nM | 4730 nM | 82 nM | 20 nM
CCN1CC(C)(C)Oc2nc(N3CC4CCC(C3)O4)nc(-c3ccc(NC(=O)Nc4ccc(OC)cn4)cc3)c2C1=O [Example 44, 1-{4-[6-Ethyl-8,8-dimethyl-2-(8-oxa-3-azabicyclo[3.2.1]oct-3-yl)-5-oxo-5,6,7,8-tetrahydro-9-oxa-1,3,6-triazabenzocyclohepten-4-yl]phenyl}-3-(5-methoxypyridin-2-yl)urea] | 34 nM | >10000 nM | 220 nM | 40 nM
CNC(=O)Nc1ccc(-c2nc(N3CC4CCC(C3)O4)nc3c2C(=O)N(C)CC(C)(C)O3)cc1F [Example 45, 1-{2-Fluoro-4-[6,8,8-trimethyl-2-(8-oxa-3-azabicyclo[3.2.1]oct-3-yl)-5-oxo-5,6,7,8-tetrahydro-9-oxa-1,3,6-triazabenzocyclohepten-4-yl]phenyl}-3-methylurea] | 24 nM | 4000 nM | 85 nM | 32 nM
CNC(=O)Nc1ccc(-c2nc(N3C4CCC3COC4)nc3c2C(=O)N(C)CC(C)(C)O3)cc1F [Example 46, 1-{2-Fluoro-4-[6,8,8-trimethyl-2-(3-oxa-8-azabicyclo[3.2.1]oct-8-yl)-5-oxo-5,6,7,8-tetrahydro-9-oxa-1,3,6-triazabenzocyclohepten-4-yl]phenyl}-3-methylurea] | 26 nM | 8880 nM | 90 nM | 24 nM
CCN1CC(C)(C)Oc2nc(N3CC4CCC(C3)O4)nc(-c3ccc(NC(=O)NC)cc3F)c2C1=O [Example 47, 1-{4-[6-Ethyl-8,8-dimethyl-2-(8-oxa-3-azabicyclo[3.2.1]oct-3-yl)-5-oxo-5,6,7,8-tetrahydro-9-oxa-1,3,6-triazabenzocyclohepten-4-yl]-3-fluorophenyl}-3-methylurea] | 34 nM | >10000 nM | 564 nM | 151 nM

Source: patent publication US9120812B2, “Pyrimidooxazocine derivatives as mTOR-inhibitors” (SANOFI, priority 2012, dated 2015)
